Laboratory results published in ChEMBL document CHEMBL1128350, “Design and evaluation of nonpeptide fibrinogen gamma-chain based GPIIb/IIIa antagonists” (J Med Chem, 1995).
Peptide text beside a SMILES is read from it.

Assays:
[1] = species on record: Homo sapiens; assay: Inhibition (at 50 uM) of thrombin-induced platelet aggregation; assay type: functional
[2] = target: T1, Integrin alpha-IIb/beta-3 (Homo sapiens, UniProt P05106+P08514); assay: Inhibition of biotinylated fibrinogen binding to isolated alpha IIb beta-3 integrin; assay type: protein-complex assay
Target sequence in this assay (P05106 27-788 limits assumed): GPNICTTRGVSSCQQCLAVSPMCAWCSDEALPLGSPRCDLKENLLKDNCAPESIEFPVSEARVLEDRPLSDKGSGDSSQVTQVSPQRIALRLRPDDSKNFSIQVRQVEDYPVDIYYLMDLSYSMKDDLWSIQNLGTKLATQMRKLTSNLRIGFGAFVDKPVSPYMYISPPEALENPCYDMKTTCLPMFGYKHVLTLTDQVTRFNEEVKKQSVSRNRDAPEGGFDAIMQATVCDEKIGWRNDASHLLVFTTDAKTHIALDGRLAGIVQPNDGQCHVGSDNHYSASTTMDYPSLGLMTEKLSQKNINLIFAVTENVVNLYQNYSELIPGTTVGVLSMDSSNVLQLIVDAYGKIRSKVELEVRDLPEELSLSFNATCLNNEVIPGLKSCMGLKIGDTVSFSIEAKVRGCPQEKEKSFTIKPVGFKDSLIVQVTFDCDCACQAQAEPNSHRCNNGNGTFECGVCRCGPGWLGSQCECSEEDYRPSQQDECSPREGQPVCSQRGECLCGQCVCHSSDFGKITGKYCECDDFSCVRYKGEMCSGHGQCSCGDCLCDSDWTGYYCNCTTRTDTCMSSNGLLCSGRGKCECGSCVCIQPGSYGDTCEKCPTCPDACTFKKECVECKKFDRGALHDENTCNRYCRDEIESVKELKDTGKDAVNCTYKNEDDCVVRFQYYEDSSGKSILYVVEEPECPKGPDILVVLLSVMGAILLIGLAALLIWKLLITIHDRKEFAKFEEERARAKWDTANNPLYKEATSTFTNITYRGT
Target sequence in this assay (P08514 32-887 limits assumed): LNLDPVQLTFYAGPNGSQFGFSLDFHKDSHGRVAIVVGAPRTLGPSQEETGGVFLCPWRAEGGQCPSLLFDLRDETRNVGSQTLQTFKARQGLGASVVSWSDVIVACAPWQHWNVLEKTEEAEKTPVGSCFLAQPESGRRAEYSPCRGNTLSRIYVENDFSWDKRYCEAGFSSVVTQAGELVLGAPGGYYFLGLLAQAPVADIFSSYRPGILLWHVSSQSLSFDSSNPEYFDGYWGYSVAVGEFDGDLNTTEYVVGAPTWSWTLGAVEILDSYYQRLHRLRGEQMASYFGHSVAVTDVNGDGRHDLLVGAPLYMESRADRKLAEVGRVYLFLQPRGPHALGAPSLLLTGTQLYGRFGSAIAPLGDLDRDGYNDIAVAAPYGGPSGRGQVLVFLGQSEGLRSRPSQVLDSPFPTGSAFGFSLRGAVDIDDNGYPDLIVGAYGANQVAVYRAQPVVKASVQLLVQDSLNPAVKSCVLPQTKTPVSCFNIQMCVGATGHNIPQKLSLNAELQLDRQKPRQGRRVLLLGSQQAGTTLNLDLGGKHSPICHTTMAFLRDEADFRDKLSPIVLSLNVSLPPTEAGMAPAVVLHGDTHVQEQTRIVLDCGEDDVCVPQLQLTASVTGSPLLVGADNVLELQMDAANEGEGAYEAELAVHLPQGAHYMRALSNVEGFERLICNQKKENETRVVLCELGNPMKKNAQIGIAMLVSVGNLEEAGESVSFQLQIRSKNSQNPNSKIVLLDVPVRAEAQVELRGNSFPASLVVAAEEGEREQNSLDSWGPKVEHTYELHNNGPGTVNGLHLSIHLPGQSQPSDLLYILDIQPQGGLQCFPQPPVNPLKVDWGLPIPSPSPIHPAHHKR
Target sequence in this assay (P08514 891-1039 limits assumed): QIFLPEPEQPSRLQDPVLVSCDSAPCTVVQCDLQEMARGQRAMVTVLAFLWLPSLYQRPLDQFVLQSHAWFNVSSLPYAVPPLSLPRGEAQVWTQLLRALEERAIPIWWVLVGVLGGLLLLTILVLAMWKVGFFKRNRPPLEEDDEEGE

[3] = species on record: Homo sapiens; assay: Inhibition (at 10 uM) of thrombin-induced platelet aggregation; assay type: functional
[4] = species on record: Homo sapiens; assay: Compound was tested for inhibition of thrombin-induced platelet aggregation at the 1.0 uM Conc.; assay type: functional
[5] = species on record: Homo sapiens; assay: Percent inhibition of thrombin-induced platelet aggregation at 50 uM.; assay type: functional
[6] = target: T1, Integrin alpha-IIb/beta-3; assay: (§1) Inhibition of fibrinogen binding to isolated integrin alphaIIb-beta3 at 50 uM.; assay type: protein-complex assay
[7] = species on record: Homo sapiens; assay: Inhibition of collagen-induced platelet aggregation […].; assay type: functional
[8] = species on record: Homo sapiens; assay: Percent inhibition of thrombin-induced platelet aggregation at 20 uM.; assay type: functional
[9] = target: T1, Integrin alpha-IIb/beta-3; assay: as §1; assay type: protein-complex assay; remark: listed apart in the source
Target sequence in this assay (P05106 27-788 limits assumed): as the sequence (P05106 27-788 limits assumed) above
Target sequence in this assay (P08514 32-887 limits assumed): as the sequence (P08514 32-887 limits assumed) above
Target sequence in this assay (P08514 891-1039 limits assumed): as the sequence (P08514 891-1039 limits assumed) above

[10] = Percent inhibition of thrombin-induced platelet aggregation at the Conc. of 0.1 uM.
[11] = as above; remark: listed apart in the source

| Molecule | IC50 [2] [nM] | inhibition at 50 µM [1] [%] | inhibition at 10 µM [3] [%] | other results |
| --- | --- | --- | --- | --- |
| NCCCC[C@H](N)C(=O)N1CCCC(C(=O)NCCC(=O)O)C1 (some centres undefined) | 760 | 87 | 48 | inhibition at 1 µM [4]: 0% |
| NCCCCC(NC(=O)OCc1ccccc1)C(=O)NC12CC3CC(C1)CC(N(CC(=O)O)C(=O)COc1ccccc1)(C3)C2 (centres undefined) | – | – | – | inhibition at 50 µM [5]: 2%; inhibition [6]: 33% |
| COC(=O)[C@H](CC(=O)O)NC(=O)C1CCCN(C(=O)[C@H](CCCCN)NC(=O)OC(C)(C)C)C1 (some centres undefined) | 29 | 87 | 32 | IC50 [7]: 2630 nM; inhibition at 1 µM [4]: 2% |
| CC(C)(C)OC(=O)N[C@H](CCCCN)C(=O)N1CCCC(C(=O)NCCCC(=O)O)C1 (some centres undefined) | – | 0 | 0 | inhibition at 50 µM [2]: 59% |
| NCCCC[C@@H](N)C(=O)N1CCCC(C(=O)NCCC(=O)O)C1 (some centres undefined) | 2600 | 8 | 1 | – |
| CC(C)(C)OC(=O)NC(CCCCN)C(=O)NC12CC3CC(CC(NCC(=O)O)(C3)C1)C2 (centres undefined) | – | – | – | inhibition at 20 µM [8]: 40% |
| COC(=O)CNC12CC3CC(C1)CC(NC(=O)C(CCCCN)NC(=O)OCC1c4ccccc4-c4ccccc41)(C3)C2 (centres undefined) | – | – | – | inhibition at 50 µM [5]: 25%; inhibition [6]: 1% |
| O=C(O)CNC12CC3CC(C1)CC(NC(=O)CCC1CCNCC1)(C3)C2 | – | – | – | inhibition at 50 µM [5]: 5%; inhibition [6]: 49% |
| CC(C)(C)OC(=O)N[C@@H](CCCCN)C(=O)N1CCCC(C(=O)NCCCC(=O)O)C1 (some centres undefined) | – | 43 | 7 | – |
| CC(C)(C)OC(=O)N[C@@H](CCCCN)C(=O)N1CCC[C@H](C(=O)NCCC(=O)O)C1 | 28 | 91 | 87 | inhibition at 1 µM [4]: 11% |
| CC(C)NCCCCC(NC(=O)OC(C)(C)C)C(=O)NC12CC3CC(CC(NCC(=O)O)(C3)C1)C2 (centres undefined) | – | – | – | IC50 [9]: 29900 nM; inhibition at 50 µM [5]: 3% |
| CC(C)(C)OC(=O)N[C@@H](CCCCNC(=O)OCc1ccccc1)C(=O)N1CCC[C@@H](C(=O)NCCC(=O)O)C1 | 20000 | – | – | – |
| NCCCCCC(=O)N1CCCC(C(=O)NCCC(=O)O)C1 (centres undefined) | – | 88 | 87 | inhibition at 1 µM [4]: 29% |
| NCCCCC(NC(=O)OCc1ccccc1)C(=O)NC12CC3CC(CC(NCC(=O)O)(C3)C1)C2 (centres undefined) | – | – | – | inhibition at 50 µM [5]: 24%; inhibition [6]: 26% |
| CC(C)(C)OC(=O)N[C@@H](CCCCN)C(=O)N1CCC[C@@H](C(=O)NCCC(=O)O)C1 | 8 | 91 | 87 | IC50 [7]: 220 nM; inhibition at 1 µM [4]: 45%; inhibition at 0.1 µM [10]: 2% |
| H-HHLGGAKQAGDV-OH | 4100 | – | – | – |
| CC(=O)N[C@H](CCCCN)C(=O)N1CCCC(C(=O)NCC(=O)O)C1 (some centres undefined) | – | 4 | – | inhibition at 50 µM [2]: 24% |
| N=C(N)NCCC[C@H](N)C(=O)NCC(=O)N[C@@H](CC(=O)O)C(=O)N[C@@H](CS)C(=O)O (H-RGDC-OH) | 1000 | – | – | – |
| NCCCCCC(=O)N1CCCC(CNCCC(=O)O)C1 (centres undefined) | – | 63 | 24 | – |
| COC(=O)CC(NC(=O)CNC12CC3CC(C1)CC(NC(=O)C(CCCCN)NC(=O)OCC1c4ccccc4-c4ccccc41)(C3)C2)C(=O)NC(C(=O)OC)C(C)C (centres undefined) | – | – | – | inhibition at 50 µM [5]: 15%; inhibition [6]: 0% |
| CC(C)(C)OC(=O)NC(CCCN=C(N)N)C(=O)NC12CC3CC(CC(NCC(=O)O)(C3)C1)C2 (centres undefined) | – | – | – | inhibition at 50 µM [5]: 9%; inhibition [6]: 28% |
| C[C@H](NC(=O)OCC1c2ccccc2-c2ccccc21)C(=O)N[C@@H](CCCCN)C(=O)NC12CC3CC(CC(NCC(=O)O)(C3)C1)C2 | – | – | – | inhibition at 50 µM [5]: 37%; inhibition [6]: 42% |
| CC(C)NCCCC[C@@H](NC(=O)OC(C)(C)C)C(=O)N1CCCC(C(=O)NCCC(=O)O)C1 (some centres undefined) | – | 4 | 6 | inhibition at 5 µM [2]: 20% |
| O=C(O)CCNC(=O)C1CCCN(C(=O)CCC2CCNCC2)C1 (centres undefined) | 9 | 91 | 89 | IC50 [7]: 140 nM; inhibition at 1 µM [4]: 89%; inhibition at 0.1 µM [11]: 4% |

Second part, led by results:

| IC50 [2] [nM] | Molecule | inhibition at 50 µM [1] [%] | inhibition at 10 µM [3] [%] | other results |
| --- | --- | --- | --- | --- |
| 340 | CC(=O)N[C@@H](CCCCN)C(=O)N1CCCC(C(=O)NCCC(=O)O)C1 (some centres undefined) | 87 | 67 | – |
| 740 | CC(C)(C)OC(=O)N[C@H](CCCCN)C(=O)N1CCCC(C(=O)NCCC(=O)O)C1 (some centres undefined) | 45 | 12 | – |
| 50000 | CC(C)(C)OC(=O)N[C@@H](CCCCN)C(=O)N1CCCC(C(=O)NCC(=O)O)C1 (some centres undefined) | 24 | 7 | – |
| 74 | CC(=O)N[C@H](CCCCN)C(=O)N1CCCC(C(=O)NCCC(=O)O)C1 (some centres undefined) | 88 | 30 | inhibition at 1 µM [4]: 4% |
| 29 | CC(C)(C)OC(=O)N[C@@H](CCCCN)C(=O)N1CCCC(C(=O)NCCC(=O)O)C1 (some centres undefined) | 88 | 87 | IC50 [7]: 350 nM; inhibition at 1 µM [4]: 21% |
| 2700 | CC(C)(C)OC(=O)N[C@H](CCCN=C(N)N)C(=O)N1CCCC(C(=O)NCCC(=O)O)C1 (some centres undefined) | 17 | 0 | – |
